Experimental findings from US20120101095A1, “ALKOXY-THIENOPYRIMIDINES AS TGF-BETA RECEPTOR KINASE MODULATORS” (priority 2009, published 2012) are described below.

Each structure is given as a SMILES string. Bounds are passed on as bounds.

The target of the assay is T1, GST-ALK5 (Homo sapiens, UniProt P36897).
T1 sequence (P36897 34-503): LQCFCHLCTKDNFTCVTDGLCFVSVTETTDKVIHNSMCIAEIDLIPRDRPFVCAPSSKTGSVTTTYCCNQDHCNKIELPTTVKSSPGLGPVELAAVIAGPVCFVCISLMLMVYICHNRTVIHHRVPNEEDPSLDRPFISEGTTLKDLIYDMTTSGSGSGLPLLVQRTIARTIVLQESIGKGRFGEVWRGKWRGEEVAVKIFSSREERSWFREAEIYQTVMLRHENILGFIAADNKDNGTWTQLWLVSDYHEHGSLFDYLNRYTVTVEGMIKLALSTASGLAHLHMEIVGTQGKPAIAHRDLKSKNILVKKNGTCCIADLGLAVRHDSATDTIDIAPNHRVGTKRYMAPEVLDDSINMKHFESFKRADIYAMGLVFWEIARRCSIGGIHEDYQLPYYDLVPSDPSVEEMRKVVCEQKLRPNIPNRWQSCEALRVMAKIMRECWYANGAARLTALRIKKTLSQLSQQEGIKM
Description: In-vitro (enzyme) kinase assay, 384-well flashplate, GST-SMAD2 substrate. Format: biochemical. As to conditions: 31.2 nM GST-ALK5, 439 nM GST-SMAD2, 3 mM ATP, 30° C., 45 min.
As usually defined, the IC50 is the concentration at which inhibition is half-maximal. As to `NC(=O)c1sc2nc(OCCN3CCOC3=O)nc(-c3cccc(Cl)c3)c2c1N` [No 57, 5-Amino-4-(3-chloro-phenyl)-2-[2-(2-oxo-oxazolidin-3-yl)-ethoxy]-thieno[2,3-d]pyrimidine-6-carboxylic acid amide], the IC50 is below 100 nM.
The result for `NC(=O)c1sc2nc(OCC3CCC3)nc(-c3cccc(C(F)(F)F)c3)c2c1N` [No 10, 5-Amino-2-cyclobutylmethoxy-4-(3-trifluoromethyl-phenyl)-thieno[2,3-d]pyrimidine-6-carboxylic acid amide] reads above 1000 nM.
Take `Cc1cccc(-c2nc(OCc3ccn(C)n3)nc3sc(C(N)=O)c(N)c23)n1` [No 28, 5-Amino-2-(1-methyl-1H-pyrazol-3-ylmethoxy)-4-(6-methyl-pyridin-2-yl)-thieno[2,3-d]pyrimidine-6-carboxylic acid amide]: the IC50 was below 100 nM.
For the molecule `NC(=O)c1sc2nc(OCC3CCCC3)nc(-c3cccc(Cl)c3)c2c1N` [No 7, 5-Amino-4-(3-chloro-phenyl)-2-cyclopentylmethoxy-thieno[2,3-d]pyrimidine-6-carboxylic acid amide], the IC50 was in the range of 500 to 1000 nM.
The result for `CNC(=O)CCCOc1nc(-c2cccc(Cl)c2)c2c(N)c(C(N)=O)sc2n1` [No 70, 5-Amino-4-(3-chloro-phenyl)-2-(3-methylcarbamoyl-propoxy)-thieno[2,3-d]pyrimidine-6-carboxylic acid amide] reads 100 to 500 nM; that for `Cc1cccc(-c2nc(OCCN3CCCC3=O)nc3sc(C(N)=O)c(N)c23)n1` [No 53, 5-Amino-4-(6-methyl-pyridin-2-yl)-2-[2-(2-oxo-pyrrolidin-1-yl)-ethoxy]-thieno[2,3-d]pyrimidine-6-carboxylic acid amide], 100 to 500 nM.
The result for `NC(=O)c1sc2nc(OCC3(CO)CC3)nc(-c3cccc(Cl)c3)c2c1N` [No 65, 5-Amino-4-(3-chloro-phenyl)-2-(1-hydroxymethyl-cyclopropylmethoxy)-thieno[2,3-d]pyrimidine-6-carboxylic acid amide] reads 100 to 500 nM; that for `Cc1cccc(-c2nc(OCc3ccc(OCCN4CCOCC4)cc3)nc3sc(C(N)=O)c(N)c23)n1` [No 35, 5-Amino-4-(6-methyl-pyridin-2-yl)-2-[4-(2-morpholin-4-yl-ethoxy)-benzyloxy]-thieno[2,3-d]pyrimidine-6-carboxylic acid amide], 100 to 500 nM.
The result for `NC(=O)c1sc2nc(OCCn3cccn3)nc(-c3cccc(Cl)c3)c2c1N` [No 42, 5-Amino-4-(3-chloro-phenyl)-2-(2-pyrazol-1-yl-ethoxy)-thieno[2,3-d]pyrimidine-6-carboxylic acid amide] reads below 100 nM; that for `Cc1cccc(-c2nc(OCc3cnn(C)c3)nc3sc(C(N)=O)c(N)c23)n1` [No 33, 5-Amino-2-(1-methyl-1H-pyrazol-4-ylmethoxy)-4-(6-methyl-pyridin-2-yl)-thieno[2,3-d]pyrimidine-6-carboxylic acid amide], below 100 nM; that for `COc1nc(-c2cccc(Cl)c2)c2c(N)c(C(N)=O)sc2n1` [No 6, 5-Amino-4-(3-chloro-phenyl)-2-methoxy-thieno[2,3-d]pyrimidine-6-carboxylic acid amide], below 100 nM.
Molecule `NC(=O)c1sc2nc(OC[C@@H](O)CO)nc(-c3cccc(Cl)c3)c2c1N` [No 18, 5-Amino-4-(3-chloro-phenyl)-2-((S)-2,3-dihydroxy-propoxy)-thieno[2,3-d]pyrimidine-6-carboxylic acid amide] returned a concentration for half-maximal inhibition (IC50) of 100 to 500 nM.
Turning to `NC(=O)CCCOc1nc(-c2cccc(Cl)c2)c2c(N)c(C(N)=O)sc2n1` [No 69, 5-Amino-2-(3-carbamoyl-propoxy)-4-(3-chloro-phenyl)-thieno[2,3-d]pyrimidine-6-carboxylic acid amide], the IC50 lay within 100 to 500 nM.
The result for `Cn1nccc1COc1nc(-c2cccc(Cl)c2)c2c(N)c(C(N)=O)sc2n1` [No 47, 5-Amino-4-(3-chloro-phenyl)-2-(2-methyl-2H-pyrazol-3-ylmethoxy)-thieno[2,3-d]pyrimidine-6-carboxylic acid amide] reads below 100 nM; that for `C=C(C)CCOc1nc(-c2cccc(C(F)(F)F)c2)c2c(N)c(C(N)=O)sc2n1` [No 17, 5-Amino-2-(3-methyl-but-3-enyloxy)-4-(3-trifluoromethyl-phenyl)-thieno[2,3-d]pyrimidine-6-carboxylic acid amide], 100 to 500 nM; that for `COc1nc(-c2ccc(C)s2)c2c(N)c(C(N)=O)sc2n1` [No 23, 5-Amino-2-methoxy-4-(5-methyl-thiophen-2-yl)-thieno[2,3-d]pyrimidine-6-carboxylic acid amide], 100 to 500 nM.
Turning to `NC(=O)COc1nc(-c2cccc(Cl)c2)c2c(N)c(C(N)=O)sc2n1` [No 56, 5-Amino-2-carbamoylmethoxy-4-(3-chloro-phenyl)-thieno[2,3-d]pyrimidine-6-carboxylic acid amide], the IC50 is below 100 nM.
Take `NC(=O)c1sc2nc(OCCO)nc(-c3cccc(Cl)c3)c2c1N` [No 13, 5-Amino-4-(3-chloro-phenyl)-2-(2-hydroxy-ethoxy)-thieno[2,3-d]pyrimidine-6-carboxylic acid amide]: the IC50 was 100 to 500 nM.
For `COc1nc(-c2cccc(C)n2)c2c(N)c(C(N)=O)sc2n1` [No 25, 5-Amino-2-methoxy-4-(6-methyl-pyridin-2-yl)-thieno[2,3-d]pyrimidine-6-carboxylic acid amide], the 50% inhibitory concentration (IC50) was below 100 nM.
As for `N#CCCOc1nc(-c2cccc(Cl)c2)c2c(N)c(C(N)=O)sc2n1` [No 72, 5-Amino-4-(3-chloro-phenyl)-2-(2-cyano-ethoxy)-thieno[2,3-d]pyrimidine-6-carboxylic acid amide], the figure is below 100 nM; as for `Cc1ccc(-c2nc(OCc3cnn(C)c3)nc3sc(C(N)=O)c(N)c23)o1` [No 24, 5-Amino-4-(5-methyl-furan-2-yl)-2-(1-methyl-1H-pyrazol-4-ylmethoxy)-thieno[2,3-d]pyrimidine-6-carboxylic acid amide], below 100 nM.
As to `NC(=O)c1sc2nc(OCCN3CCCC3=O)nc(-c3cccc(Cl)c3)c2c1N` [No 48, 5-Amino-4-(3-chloro-phenyl)-2-[2-(2-oxo-pyrrolidin-1-yl)-ethoxy]-thieno[2,3-d]pyrimidine-6-carboxylic acid amide], the half-inhibitory concentration (IC50) was below 100 nM.
The result for `NC(=O)c1sc2nc(OC[C@H](O)CO)nc(-c3cccc(Cl)c3)c2c1N` [No 50, 5-Amino-4-(3-chloro-phenyl)-2-((R)-2,3-dihydroxy-propoxy)-thieno[2,3-d]pyrimidine-6-carboxylic acid amide] reads 100 to 500 nM.
